Columns and labels:
Assay type in all cases: in vivo
Setaria faberi (SETFA) [1] = assay: Pre-Emergence Test (herbicidal, glasshouse pots); conditions: evaluated after 13 days, five-point scale
[2] = tested on: Ipomoea hederacea (IPOHE); assay: Pre-Emergence Test (herbicidal, glasshouse pots); conditions: evaluated after 13 days, five-point scale
[3] = tested on: Echinochloa crus-galli (ECHCG); assay: Pre-Emergence Test (herbicidal, glasshouse pots); conditions: evaluated after 13 days, five-point scale
[4] = tested on: Amaranthus retoflexus (AMARE); assay: Pre-Emergence Test (herbicidal, glasshouse pots); conditions: evaluated after 13 days, five-point scale
Zea mays (ZEAMX) [5] = assay: Pre-Emergence Test (herbicidal, glasshouse pots); conditions: evaluated after 13 days, five-point scale
[6] = tested on: Amaranthus palmeri (AMAPA); assay: Pre-Emergence Test (herbicidal, glasshouse pots); conditions: evaluated after 13 days, five-point scale
[7] = tested on: Amaranthus palmeri (AMAPA); assay: Post-Emergence Test (herbicidal, glasshouse pots); conditions: evaluated after 13 days
Procedure, shortened: (§1)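 Damage after 13 days is given as a five-point score, where 5 means 81-100% and 1 means 0-20% injury. Seed-sown pots were treated by spray with the technical ingredient in aqueous acetone (50:50) with 0.5% Tween 20, dose expressed in g/ha.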

[8] = tested on: Amaranthus retoflexus (AMARE); assay: Post-Emergence Test (herbicidal, glasshouse pots); conditions: evaluated after 13 days
Procedure, shortened: as §1

[9] = tested on: Echinochloa crus-galli (ECHCG); assay: Post-Emergence Test (herbicidal, glasshouse pots); conditions: evaluated after 13 days
Procedure, shortened: as §1

[10] = tested on: Ipomoea hederacea (IPOHE); assay: Post-Emergence Test (herbicidal, glasshouse pots); conditions: evaluated after 13 days
Procedure, shortened: as §1

Setaria faberi (SETFA) [11] = assay: Post-Emergence Test (herbicidal, glasshouse pots); conditions: evaluated after 13 days
Procedure, shortened: as §1

Zea mays (ZEAMX) [12] = assay: Post-Emergence Test (herbicidal, glasshouse pots); conditions: evaluated after 13 days
Procedure, shortened: as §1

Structure (SMILES) | percentage damage caused to the plant, SETFA (Setaria faberi (SETFA) [1]; rate 1000 g/ha) | percentage damage caused to the plant, IPHOE ([2]; rate 1000 g/ha) | percentage damage caused to the plant, ECHCG ([3]; rate 1000 g/ha) | percentage damage caused to the plant, AMARE ([4]; rate 1000 g/ha) | percentage damage caused to the plant, ZEAMX (Zea mays (ZEAMX) [5]; rate 1000 g/ha) | percentage damage caused to the plant, AMAPA ([6]; rate 1000 g/ha) | Post-Emergence Test AMAPA percentage damage (five-point scale) ([7]; rate 1000 g/ha) | Post-Emergence Test AMARE percentage damage (five-point scale) ([8]; rate 1000 g/ha) | Post-Emergence Test ECHCG percentage damage (five-point scale) ([9]; rate 1000 g/ha) | Post-Emergence Test IPHOE percentage damage (five-point scale) ([10]; rate 1000 g/ha) | Post-Emergence Test SETFA percentage damage (five-point scale) (Setaria faberi (SETFA) [11]; rate 1000 g/ha) | Post-Emergence Test ZEAMX percentage damage (five-point scale) (Zea mays (ZEAMX) [12]; rate 1000 g/ha) | percentage damage caused to the plant, SETFA (Setaria faberi (SETFA) [1]; rate 250 g/ha) | percentage damage caused to the plant, IPHOE ([2]; rate 250 g/ha) | percentage damage caused to the plant, ECHCG ([3]; rate 250 g/ha) | percentage damage caused to the plant, AMARE ([4]; rate 250 g/ha) | percentage damage caused to the plant, ZEAMX (Zea mays (ZEAMX) [5]; rate 250 g/ha) | percentage damage caused to the plant, AMAPA ([6]; rate 250 g/ha) | Post-Emergence Test AMAPA percentage damage (five-point scale) ([7]; rate 250 g/ha) | Post-Emergence Test AMARE percentage damage (five-point scale) ([8]; rate 250 g/ha) | other results
CCn1c(Oc2cc(F)ccc2Cl)cc(=O)c(C(=O)O)c1-c1ccc(Cl)c(Cl)c1 [Compound 35, 6-(2-chloro-5-fluoro-phenoxy)-2-(3,4-dichlorophenyl)-1-ethyl-4-oxo-pyridine-3-carboxylic acid] | 5 (5=81-100%) | 0 | 5 (5=81-100%) | 1 (1=0-20%) | 1 (1=0-20%) | 0 | 3 (3=41-60%) | 3 (3=41-60%) | 4 (4=61-80%) | 2 (2=21-40%) | 4 (4=61-80%) | 2 (2=21-40%) |  |  |  |  |  |  |  |  | 
CCn1c(Oc2ccc(F)cc2)cc(=O)c(C(=O)O)c1-c1ccc(Cl)c(Cl)c1 [Compound 4, 2-(3,4-dichlorophenyl)-1-ethyl-6-(4-fluorophenoxy)-4-oxo-pyridine-3-carboxylic acid] | 5 (5=81-100%) | 4 (4=61-80%) | 5 (5=81-100%) | 3 (3=41-60%) | 3 (3=41-60%) | 3 (3=41-60%) | 4 (4=61-80%) | 4 (4=61-80%) | 4 (4=61-80%) | 3 (3=41-60%) | 4 (4=61-80%) | 3 (3=41-60%) |  |  |  |  |  |  |  |  | 
CCn1c(Oc2ccc(F)c(F)c2)cc(=O)c(C(=O)O)c1-c1ccc(Cl)c(Cl)c1 [Compound 28, 2-(3,4-dichlorophenyl)-6-(3,4-difluorophenoxy)-1-ethyl-4-oxo-pyridine-3-carboxylic acid] | 5 (5=81-100%) | 4 (4=61-80%) | 4 (4=61-80%) | 5 (5=81-100%) | 4 (4=61-80%) | 4 (4=61-80%) | 4 (4=61-80%) | 4 (4=61-80%) | 4 (4=61-80%) | 3 (3=41-60%) | 4 (4=61-80%) | 4 (4=61-80%) |  |  |  |  |  |  |  |  | 
CCn1c(Oc2ccc(C)c(F)c2)cc(=O)c(C(=O)O)c1-c1ccc(C#N)c(Cl)c1 [Compound 73, 2-(3-chloro-4-cyano-phenyl)-1-ethyl-6-(3-fluoro-4-methyl-phenoxy)-4-oxo-pyridine-3-carboxylic acid] |  |  |  |  |  |  |  |  |  |  |  |  | 5 (5=81-100%) | 4 (4=61-80%) | 4 (4=61-80%) | 1 (1=0-20%) | 2 (2=21-40%) | 1 (1=0-20%) | 1 (1=0-20%) | 1 (1=0-20%) | Post-Emergence Test ECHCG percentage damage (five-point scale) ([9]; rate 250 g/ha): 4 (4=61-80%); Post-Emergence Test IPHOE percentage damage (five-point scale) ([10]; rate 250 g/ha): 4 (4=61-80%); Post-Emergence Test SETFA percentage damage (five-point scale) (Setaria faberi (SETFA) [11]; rate 250 g/ha): 3 (3=41-60%); Post-Emergence Test ZEAMX percentage damage (five-point scale) (Zea mays (ZEAMX) [12]; rate 250 g/ha): 4 (4=61-80%)
CCn1c(Oc2cc(C3CC3)on2)cc(=O)c(C(=O)O)c1-c1ccc(Cl)c(Cl)c1 [Compound 55, 6-(5-cyclopropylisoxazol-3-yl)oxy-2-(3,4-dichlorophenyl)-1-ethyl-4-oxo-pyridine-3-carboxylic acid] |  |  |  |  |  |  |  |  |  |  |  |  | 1 (1=0-20%) | 0 | 1 (1=0-20%) | 1 (1=0-20%) | 0 | 0 | 4 (4=61-80%) | 4 (4=61-80%) | Post-Emergence Test ECHCG percentage damage (five-point scale) ([9]; rate 250 g/ha): 2 (2=21-40%); Post-Emergence Test IPHOE percentage damage (five-point scale) ([10]; rate 250 g/ha): 3 (3=41-60%); Post-Emergence Test SETFA percentage damage (five-point scale) (Setaria faberi (SETFA) [11]; rate 250 g/ha): 2 (2=21-40%); Post-Emergence Test ZEAMX percentage damage (five-point scale) (Zea mays (ZEAMX) [12]; rate 250 g/ha): 2 (2=21-40%)
CCn1c(Oc2ccn(C)n2)cc(=O)c(C(=O)O)c1-c1ccc(Cl)c(Cl)c1 [Compound 37, 2-(3,4-dichlorophenyl)-1-ethyl-6-(1-methylpyrazol-3-yl)oxo-4-oxo-pyridine-3-carboxylic acid] |  |  |  |  |  |  |  |  |  |  |  |  |  |  |  |  |  |  |  |  | percentage damage caused to the plant, SETFA (Setaria faberi (SETFA) [1]; rate 62.5 g/ha): 5 (5=81-100%); percentage damage caused to the plant, IPHOE ([2]; rate 62.5 g/ha): 3 (3=41-60%); percentage damage caused to the plant, ECHCG ([3]; rate 62.5 g/ha): 4 (4=61-80%); percentage damage caused to the plant, AMARE ([4]; rate 62.5 g/ha): 2 (2=21-40%); percentage damage caused to the plant, ZEAMX (Zea mays (ZEAMX) [5]; rate 62.5 g/ha): 3 (3=41-60%); percentage damage caused to the plant, AMAPA ([6]; rate 62.5 g/ha): 2 (2=21-40%); Post-Emergence Test AMAPA percentage damage (five-point scale) ([7]; rate 62.5 g/ha): 4 (4=61-80%); Post-Emergence Test AMARE percentage damage (five-point scale) ([8]; rate 62.5 g/ha): 4 (4=61-80%); Post-Emergence Test ECHCG percentage damage (five-point scale) ([9]; rate 62.5 g/ha): 4 (4=61-80%); Post-Emergence Test IPHOE percentage damage (five-point scale) ([10]; rate 62.5 g/ha): 3 (3=41-60%); Post-Emergence Test SETFA percentage damage (five-point scale) (Setaria faberi (SETFA) [11]; rate 62.5 g/ha): 4 (4=61-80%); Post-Emergence Test ZEAMX percentage damage (five-point scale) (Zea mays (ZEAMX) [12]; rate 62.5 g/ha): 4 (4=61-80%)
CCn1c(Oc2cnsn2)cc(=O)c(C(=O)O)c1-c1ccc(Cl)c(Cl)c1 [Compound 43, 2-(3,4-dichlorophenyl)-1-ethyl-4-oxo-6-(1,2,5-thiadiazol-3-yloxy)pyridine-3-carboxylic acid] |  |  |  |  |  |  |  |  |  |  |  |  | 1 (1=0-20%) | 3 (3=41-60%) | 1 (1=0-20%) | 1 (1=0-20%) | 0 | 0 | 2 (2=21-40%) | 1 (1=0-20%) | Post-Emergence Test ECHCG percentage damage (five-point scale) ([9]; rate 250 g/ha): 2 (2=21-40%); Post-Emergence Test IPHOE percentage damage (five-point scale) ([10]; rate 250 g/ha): 4 (4=61-80%); Post-Emergence Test SETFA percentage damage (five-point scale) (Setaria faberi (SETFA) [11]; rate 250 g/ha): 2 (2=21-40%); Post-Emergence Test ZEAMX percentage damage (five-point scale) (Zea mays (ZEAMX) [12]; rate 250 g/ha): 0
CCn1c(Oc2cc(Cl)n(C)n2)cc(=O)c(C(=O)O)c1-c1ccc(Cl)c(Cl)c1 [Compound 60, 6-(5-chloro-1-methyl-pyrazol-3-yl)oxy-2-(3,4-dichlorophenyl)-1-ethyl-4-oxo-pyridine-3-carboxylic acid] |  |  |  |  |  |  |  |  |  |  |  |  | 3 (3=41-60%) | 4 (4=61-80%) | 1 (1=0-20%) | 2 (2=21-40%) | 0 | 0 | 1 (1=0-20%) | 4 (4=61-80%) | Post-Emergence Test ECHCG percentage damage (five-point scale) ([9]; rate 250 g/ha): 1 (1=0-20%); Post-Emergence Test IPHOE percentage damage (five-point scale) ([10]; rate 250 g/ha): 4 (4=61-80%); Post-Emergence Test SETFA percentage damage (five-point scale) (Setaria faberi (SETFA) [11]; rate 250 g/ha): 1 (1=0-20%); Post-Emergence Test ZEAMX percentage damage (five-point scale) (Zea mays (ZEAMX) [12]; rate 250 g/ha): 3 (3=41-60%)
CCn1c(Oc2cccc(Cl)c2)cc(=O)c(C(=O)O)c1-c1ccc(Cl)c(Cl)c1 [Compound 2, 6-(3-chlorophenoxy)-2-(3,4-dichlorophenyl)-1-ethyl-4-oxo-pyridine-3-carboxylic acid] | 5 (5=81-100%) | 4 (4=61-80%) | 4 (4=61-80%) | 2 (2=21-40%) | 2 (2=21-40%) | 1 (1=0-20%) | 4 (4=61-80%) | 4 (4=61-80%) | 4 (4=61-80%) | 3 (3=41-60%) | 4 (4=61-80%) | 3 (3=41-60%) |  |  |  |  |  |  |  |  | 
